PMC6440977 (Nature Communications, 2019)

Biological target: T. brucei PKAR-PKAC1 holoenzyme (Trypanosoma brucei, UniProt Q9GU80)
Test: biochemical
Format: biochemical

N#Cc1cn([C@@H]2O[C@H](CO)[C@@H](O)[C@H]2O)c2ncnc(O)c12 [7-CN-7-C-Ino, 7-Cyano-7-deazainosine]
EC50: 6.5 ± 4.6 nM
